Measured values published in patent US20200129482A1, “TREATMENT OF NON-SMALL CELL LUNG CANCER” (AbbVie Inc., priority 2017, published 2020).
“Also recorded” adds a separate entry of the source.

Columns and labels:
NSCLC patients [1] = assay: M10-898 clinical trial: survival by LSP status, C/P+veliparib vs C/P; type: in vivo, human; conditions: C/P+veliparib vs carboplatin/paclitaxel (C/P), FIG. 1 left
Source text: (§1) Time to death (overall survival, OS) for a given subject was defined as the number of days from the date that the subject was randomized to the date of the subject's death. All events of death were included, regardless of whether the event occurred while the subject was still taking veliparib/placebo or had previously discontinued veliparib/placebo.
(§2) Tumor samples for study were from biopsies taken prior to entry onto veliparib clinical trials M10-898 and M11-089. Tumor DNA/RNA was obtained by macrodissecting tumor area (>50% tumor content) from formalin-fixed, paraffin-embedded tumor slides. RNA and DNA was isolated using AllPrep kit (Qiagen).
RNAseq RPKM data of 52 LSP genes of Table 1 were obtained from sequenced samples of M10-898 clinical trial (https://clinicaltrials.gov/ct2/show/NCT01560104), purchased tissues and M11-089 (https://clinicaltrials.gov/ct2/show/NCT02106546). The RPKM data was log transformed and normalized in order to adjust for batch effects before entering the analyses. […]
FIG. 1 represents the impact of treatment and patient outcome in M10-898 as a function of LSP status in M10-898 (left) and M11-089 (right). […] The restricted mean survival time was calculated and is represented on the Y-axis.

NSCLC patients [2] = assay: M11-089 clinical trial: survival by LSP status or stemness score, C/P+veliparib vs C/P; type: in vivo, human; conditions: for median overall survival in LSP- and LSP+ patients / survival (restricted mean survival time, hazard ratio) as a function of LSP status: M11-089; for median overall survival in LSP- and LSP+ patients: C/P+veliparib vs C/P alone, FIG. 2; for survival (restricted mean survival time, hazard ratio) as a function of LSP status: C/P+veliparib vs carboplatin/paclitaxel (C/P), LSP+ vs LSP- patients, FIG. 1 right; for survival in relation to stemness score (mRNAsi): M11-089 samples, stemness score >=0.5 vs <0.5, FIGS. 4 and 5
Source text: as §1, §2
RNAseq RPKM data of 52 LSP genes of Table 1 were obtained from sequenced samples of M10-898 clinical trial (https://clinicaltrials.gov/ct2/show/NCT01560104), purchased tissues and M11-089 (https://clinicaltrials.gov/ct2/show/NCT02106546). The RPKM data was log transformed and normalized in order to adjust for batch effects before entering the analyses. Unsupervised Clustering was performed on 52 LSP genes from M10-898 and purchased tissues to form 3 clusters of subtypes (AD (Adenocarcinoma), NE (Neuroendocrine), SQ (Squamous)), according to the consistency of known histology defined biologically distinct subtypes. The 52 LSP genes from M10-898 and purchased tissues together with the AD vs. nonAD labelling from unsupervised clustering is served as the training data. A shrunken centroid classifier is built based on the training data. The final classifier takes normalized RPKM data of 52 LSP genes as input, and outputs the probability of being nonAD subtype (prob (AD)=1-prob (nonAD)) for each RNAseq sample from M11-089. The subtype calls (nonAD vs. AD) is based on the probability strength. The subtype call will be labelled unknown If the absolute logarithm of odds (defined as Prob (nonAD)/Prob (AD)) is less than 0.15.
FIG. 1 represents the impact of treatment and patient outcome in M10-898 as a function of LSP status in M10-898 (left) and M11-089 (right). Patients were categorized as LSP− or LSP+ using RNA expression as depicted on the x-axis. Patients treated with carboplatin/paclitaxel (C/P) are listed in dotted lines, patients treated with C/P+veliparib (V) are listed in solid lines. The restricted mean survival time was calculated and is represented on the Y-axis.
Summary statistics for each comparison are shown below FIG. 2.
We examined the M11-089 samples to relate the stemness index to survival with Veliparib. In general, an index ranging from 0 to 1 is created for each tumor sample. Tumor cells closer to 1 are more similar to stem cells and more aggressive than tumor cells closer to 0.
We derived the stemness score from our samples based on stemness Index Derived using OCLR (mRNAsi) (T. M. Matta, et al., Cell, 2018, 173(2): 338-354), and methodology and code reference is based on the public available information (http://tcgabiolinks.fmrp.usp.br/PanCanStem/mRNAsi.html). The log gene expression for m11-089 is the batch effect corrected combined batch 1,2,3,4 data.

**Q.** With `C[C@]1(c2nc3c(C(N)=O)cccc3[nH]2)CCCN1` [Veliparib, veliparib] as the compound, how does the “survival (restricted mean survival time, hazard ratio) as a function of LSP status” value (NSCLC patients [1]) read?
**A.** Its value is “statistically significant survival advantage only in the LSP+ population”.

**Q.** What about the “survival (restricted mean survival time, hazard ratio) as a function of LSP status” value (NSCLC patients [1]; listed as veliparib) of the same compound?
**A.** The value was “benefit observed in signature subgroup”.

**Q.** And the “median overall survival in LSP- and LSP+ patients” value (NSCLC patients [2])?
**A.** Its value is “statistically significant survival advantage only in the LSP+ population”.

**Q.** And the “median overall survival in LSP- and LSP+ patients” value (NSCLC patients [2]; listed as veliparib)?
**A.** The value was “increased Overall Survival (OS) observed in LSP positive NSCLC patients”.

**Q.** What about the “survival (restricted mean survival time, hazard ratio) as a function of LSP status” value (NSCLC patients [2]) of the same compound?
**A.** Its value is “statistically significant survival advantage only in the LSP+ population”.

**Q.** What about the “survival (restricted mean survival time, hazard ratio) as a function of LSP status” value (NSCLC patients [2]; listed as veliparib) of the same compound?
**A.** Its value is “benefit observed in signature subgroup”.

**Q.** And the “survival in relation to stemness score (mRNAsi)” value (NSCLC patients [2])?
**A.** The value was “better survival”.

**Q.** And the “survival in relation to stemness score (mRNAsi)” value (NSCLC patients [2]; listed as veliparib)?
**A.** Its value is “better survival; also recorded: provides a benefit to subgroup of patients”.
